ChEMBL document CHEMBL1275310, “Synthesis and screening of some novel fused thiophene and thienopyrimidine derivatives for anti-avian influenza virus (H5N1) activity” (2010)

Columns and labels:
Type in all cases: functional
[1] = test system: Influenza A virus; test: Antiviral activity against Influenza A virus (A/chicken/Egypt/1/2006 (H5N1)) infected in MDCK cells assessed as virus-induced cytopathogenicity at 40 ug after 3 to 4 days by plaque reduction assay
[2] = test system: Influenza A virus; test: Antiviral activity against Influenza A virus (A/chicken/Egypt/1/2006 (H5N1)) infected in MDCK cells assessed as virus-induced cytopathogenicity at 20 ug after 3 to 4 days by plaque reduction assay
[3] = test system: Influenza A virus; test: Antiviral activity against Influenza A virus (A/chicken/Egypt/1/2006 (H5N1)) infected in MDCK cells assessed as virus-induced cytopathogenicity at 5 ug after 3 to 4 days by plaque reduction assay
[4] = test system: Influenza A virus; test: Antiviral activity against Influenza A virus (A/chicken/Egypt/1/2006 (H5N1)) infected in MDCK cells assessed as virus-induced cytopathogenicity at 10 ug after 3 to 4 days by plaque reduction assay

## NC(=O)c1c(N)sc2c1-c1ccccc1CC2
[1]
  inhibition (INH): 89%

## O=c1[nH]c(=O)c2c3c(sc2[nH]1)CCc1ccccc1-3
[2]
  inhibition (INH): 95%
[1]
  inhibition (INH): 98%
[3]
  inhibition (INH): 92%
[4]
  inhibition (INH): 94%

## O=c1[nH]c(=S)[nH]c2sc3c(c12)-c1ccccc1CC3
[1]
  inhibition (INH): 65%
